The results in this text go back to ChEMBL document CHEMBL5291721, “A preclinical secondary pharmacology resource illuminates target-adverse drug reaction associations of marketed drugs” (Nat Commun, 2023).

One test deals with Substance-P receptor (Homo sapiens, UniProt P25103).
Test [1] addresses T1, Alpha-1A adrenergic receptor (Homo sapiens, UniProt P35348).
T1 sequence (P35348 whole entry): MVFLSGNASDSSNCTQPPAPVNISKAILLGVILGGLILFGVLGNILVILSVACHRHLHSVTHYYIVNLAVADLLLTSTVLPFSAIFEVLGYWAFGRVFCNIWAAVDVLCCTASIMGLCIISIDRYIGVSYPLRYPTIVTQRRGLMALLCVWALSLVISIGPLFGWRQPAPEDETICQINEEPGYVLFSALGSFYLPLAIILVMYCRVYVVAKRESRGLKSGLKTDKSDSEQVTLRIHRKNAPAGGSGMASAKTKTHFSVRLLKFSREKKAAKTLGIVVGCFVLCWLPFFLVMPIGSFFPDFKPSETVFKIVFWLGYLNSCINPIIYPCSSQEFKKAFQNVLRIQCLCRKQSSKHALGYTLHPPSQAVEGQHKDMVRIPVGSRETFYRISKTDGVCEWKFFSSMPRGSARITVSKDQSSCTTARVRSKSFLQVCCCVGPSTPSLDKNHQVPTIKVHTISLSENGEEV

Test [2] concerns the target T2, Androgen receptor (Rattus norvegicus, UniProt P15207).
T2 sequence (P15207 whole entry): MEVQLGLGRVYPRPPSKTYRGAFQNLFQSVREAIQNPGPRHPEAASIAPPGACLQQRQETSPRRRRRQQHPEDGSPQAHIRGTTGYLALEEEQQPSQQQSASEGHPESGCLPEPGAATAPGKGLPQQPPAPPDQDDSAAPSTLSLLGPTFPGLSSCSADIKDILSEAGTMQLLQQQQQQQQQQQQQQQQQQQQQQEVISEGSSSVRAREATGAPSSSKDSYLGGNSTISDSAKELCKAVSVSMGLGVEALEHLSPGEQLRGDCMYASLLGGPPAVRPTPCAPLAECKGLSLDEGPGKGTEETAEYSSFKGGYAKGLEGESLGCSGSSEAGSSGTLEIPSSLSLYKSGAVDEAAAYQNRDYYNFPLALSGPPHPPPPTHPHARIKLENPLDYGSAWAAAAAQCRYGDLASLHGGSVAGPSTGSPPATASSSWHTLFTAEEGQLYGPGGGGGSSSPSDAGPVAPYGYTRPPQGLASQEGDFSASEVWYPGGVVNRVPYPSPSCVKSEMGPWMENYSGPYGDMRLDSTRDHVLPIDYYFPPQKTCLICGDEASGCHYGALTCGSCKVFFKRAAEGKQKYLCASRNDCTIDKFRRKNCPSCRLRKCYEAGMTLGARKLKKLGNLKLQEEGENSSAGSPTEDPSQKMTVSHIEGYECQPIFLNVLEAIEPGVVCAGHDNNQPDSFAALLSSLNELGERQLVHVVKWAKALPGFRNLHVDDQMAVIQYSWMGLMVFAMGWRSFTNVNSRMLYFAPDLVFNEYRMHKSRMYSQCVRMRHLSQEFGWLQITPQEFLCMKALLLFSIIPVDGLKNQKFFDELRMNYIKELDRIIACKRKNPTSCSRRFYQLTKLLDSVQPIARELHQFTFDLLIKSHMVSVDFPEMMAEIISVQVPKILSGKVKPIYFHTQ
The test is classed as functional.

Test [3] addresses T2, Androgen receptor. The test is classed as functional. This is another data set of the same source.
The next test deals with Histamine H1 receptor (Homo sapiens, UniProt P35367). The test is classed as functional, cell-based.
Histamine H1 receptor, sequence (P35367 whole entry): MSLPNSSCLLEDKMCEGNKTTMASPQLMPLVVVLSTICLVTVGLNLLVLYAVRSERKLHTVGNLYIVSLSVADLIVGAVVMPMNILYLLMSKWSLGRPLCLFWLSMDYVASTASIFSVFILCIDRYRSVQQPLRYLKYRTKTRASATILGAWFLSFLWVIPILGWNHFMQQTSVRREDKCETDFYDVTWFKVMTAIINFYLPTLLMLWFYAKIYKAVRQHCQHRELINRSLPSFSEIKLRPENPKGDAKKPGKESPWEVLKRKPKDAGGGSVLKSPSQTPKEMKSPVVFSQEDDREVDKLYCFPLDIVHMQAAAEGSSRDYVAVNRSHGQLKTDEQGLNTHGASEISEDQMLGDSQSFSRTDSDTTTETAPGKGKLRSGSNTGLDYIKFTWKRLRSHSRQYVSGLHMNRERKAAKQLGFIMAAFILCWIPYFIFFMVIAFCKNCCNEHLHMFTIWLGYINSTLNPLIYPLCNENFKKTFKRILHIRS
The target in test [4] is T3, Androgen receptor (Homo sapiens, UniProt P10275).
T3 sequence (P10275 whole entry): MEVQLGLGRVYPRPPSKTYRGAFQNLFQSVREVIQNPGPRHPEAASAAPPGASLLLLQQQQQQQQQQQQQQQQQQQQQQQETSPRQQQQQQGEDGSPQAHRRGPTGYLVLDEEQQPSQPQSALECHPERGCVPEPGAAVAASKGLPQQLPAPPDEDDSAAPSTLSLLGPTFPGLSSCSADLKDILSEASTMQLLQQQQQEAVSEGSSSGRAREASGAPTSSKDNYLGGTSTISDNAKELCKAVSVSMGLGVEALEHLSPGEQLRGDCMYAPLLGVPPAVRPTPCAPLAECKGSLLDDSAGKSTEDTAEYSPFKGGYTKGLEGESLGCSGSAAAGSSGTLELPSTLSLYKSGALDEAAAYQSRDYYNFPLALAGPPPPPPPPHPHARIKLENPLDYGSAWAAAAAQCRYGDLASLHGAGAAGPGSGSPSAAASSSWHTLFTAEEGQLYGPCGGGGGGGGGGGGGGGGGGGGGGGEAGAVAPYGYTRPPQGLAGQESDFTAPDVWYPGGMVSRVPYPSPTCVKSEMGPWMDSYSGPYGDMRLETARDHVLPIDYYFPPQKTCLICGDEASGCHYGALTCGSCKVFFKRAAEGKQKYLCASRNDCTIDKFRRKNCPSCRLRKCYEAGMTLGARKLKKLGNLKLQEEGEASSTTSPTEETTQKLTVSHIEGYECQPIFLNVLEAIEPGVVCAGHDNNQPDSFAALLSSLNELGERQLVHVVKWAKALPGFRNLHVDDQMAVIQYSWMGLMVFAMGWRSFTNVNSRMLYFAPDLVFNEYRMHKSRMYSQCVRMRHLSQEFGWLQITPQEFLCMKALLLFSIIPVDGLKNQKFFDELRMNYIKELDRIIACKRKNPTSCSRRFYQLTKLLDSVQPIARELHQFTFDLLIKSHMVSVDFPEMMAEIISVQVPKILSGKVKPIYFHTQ

Test [5] has as its target T4, Alpha-2A adrenergic receptor (Homo sapiens, UniProt P08913).
T4 sequence (P08913 whole entry): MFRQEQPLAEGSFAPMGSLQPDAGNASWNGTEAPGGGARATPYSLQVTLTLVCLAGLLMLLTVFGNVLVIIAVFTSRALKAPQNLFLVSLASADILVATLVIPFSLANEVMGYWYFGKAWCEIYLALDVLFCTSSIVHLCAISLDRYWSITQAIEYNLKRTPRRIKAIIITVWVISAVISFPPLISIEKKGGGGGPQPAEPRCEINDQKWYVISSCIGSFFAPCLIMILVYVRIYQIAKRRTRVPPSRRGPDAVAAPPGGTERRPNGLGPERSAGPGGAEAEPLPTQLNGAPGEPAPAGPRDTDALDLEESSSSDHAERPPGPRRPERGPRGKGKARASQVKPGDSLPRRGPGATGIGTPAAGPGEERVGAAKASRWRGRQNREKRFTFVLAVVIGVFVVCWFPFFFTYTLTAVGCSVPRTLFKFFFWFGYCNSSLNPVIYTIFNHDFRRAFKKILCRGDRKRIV

Test [6] concerns the target Gamma-aminobutyric acid receptor subunit alpha-1/alpha-2/beta-2/gamma-2 (Homo sapiens, UniProt P14867+P18507+P47869+P47870). The test is classed as functional, cell-based.
Further: assay procedure not described here.

Gamma-aminobutyric acid receptor subunit alpha-1/alpha-2/beta-2/gamma-2, sequence (P14867 whole entry): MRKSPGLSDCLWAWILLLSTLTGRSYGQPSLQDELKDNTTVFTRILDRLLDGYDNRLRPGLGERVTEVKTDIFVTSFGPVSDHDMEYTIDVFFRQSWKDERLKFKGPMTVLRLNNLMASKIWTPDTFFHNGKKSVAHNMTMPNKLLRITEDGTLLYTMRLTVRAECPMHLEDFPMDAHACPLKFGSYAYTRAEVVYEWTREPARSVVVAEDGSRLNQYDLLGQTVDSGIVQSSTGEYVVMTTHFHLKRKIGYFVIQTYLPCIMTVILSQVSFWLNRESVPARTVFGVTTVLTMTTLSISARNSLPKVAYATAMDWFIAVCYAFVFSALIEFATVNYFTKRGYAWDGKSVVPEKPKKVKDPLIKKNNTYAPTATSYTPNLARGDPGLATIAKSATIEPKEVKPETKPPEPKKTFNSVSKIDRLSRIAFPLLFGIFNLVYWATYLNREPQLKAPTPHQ
Gamma-aminobutyric acid receptor subunit alpha-1/alpha-2/beta-2/gamma-2, sequence (P47870 whole entry): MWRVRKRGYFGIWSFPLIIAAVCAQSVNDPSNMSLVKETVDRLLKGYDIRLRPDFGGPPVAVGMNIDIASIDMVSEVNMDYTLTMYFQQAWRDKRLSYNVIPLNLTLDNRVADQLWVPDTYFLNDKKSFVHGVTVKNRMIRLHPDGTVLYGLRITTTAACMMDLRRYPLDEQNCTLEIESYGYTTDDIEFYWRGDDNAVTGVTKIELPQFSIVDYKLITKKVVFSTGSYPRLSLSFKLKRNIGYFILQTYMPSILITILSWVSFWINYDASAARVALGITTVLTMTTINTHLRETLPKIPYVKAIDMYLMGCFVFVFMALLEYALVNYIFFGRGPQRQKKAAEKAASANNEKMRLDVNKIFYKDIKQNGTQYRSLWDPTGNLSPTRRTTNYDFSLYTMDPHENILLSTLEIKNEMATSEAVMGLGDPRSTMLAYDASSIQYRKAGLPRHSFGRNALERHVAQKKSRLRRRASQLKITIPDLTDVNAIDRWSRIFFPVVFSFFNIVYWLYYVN
Gamma-aminobutyric acid receptor subunit alpha-1/alpha-2/beta-2/gamma-2, sequence (P18507 whole entry): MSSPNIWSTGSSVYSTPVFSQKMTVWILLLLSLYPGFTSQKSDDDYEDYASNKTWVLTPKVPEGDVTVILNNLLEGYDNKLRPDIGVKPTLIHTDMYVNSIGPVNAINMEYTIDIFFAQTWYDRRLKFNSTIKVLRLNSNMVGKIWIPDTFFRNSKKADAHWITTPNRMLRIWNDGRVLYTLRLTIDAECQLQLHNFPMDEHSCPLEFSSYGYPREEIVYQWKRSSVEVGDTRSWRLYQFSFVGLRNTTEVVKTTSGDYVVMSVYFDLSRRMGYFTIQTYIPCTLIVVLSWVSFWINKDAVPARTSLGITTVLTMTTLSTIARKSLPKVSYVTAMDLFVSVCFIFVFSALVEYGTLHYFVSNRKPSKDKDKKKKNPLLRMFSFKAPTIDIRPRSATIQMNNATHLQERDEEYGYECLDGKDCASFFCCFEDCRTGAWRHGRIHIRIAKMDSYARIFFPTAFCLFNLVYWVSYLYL
Gamma-aminobutyric acid receptor subunit alpha-1/alpha-2/beta-2/gamma-2, sequence (P47869 whole entry): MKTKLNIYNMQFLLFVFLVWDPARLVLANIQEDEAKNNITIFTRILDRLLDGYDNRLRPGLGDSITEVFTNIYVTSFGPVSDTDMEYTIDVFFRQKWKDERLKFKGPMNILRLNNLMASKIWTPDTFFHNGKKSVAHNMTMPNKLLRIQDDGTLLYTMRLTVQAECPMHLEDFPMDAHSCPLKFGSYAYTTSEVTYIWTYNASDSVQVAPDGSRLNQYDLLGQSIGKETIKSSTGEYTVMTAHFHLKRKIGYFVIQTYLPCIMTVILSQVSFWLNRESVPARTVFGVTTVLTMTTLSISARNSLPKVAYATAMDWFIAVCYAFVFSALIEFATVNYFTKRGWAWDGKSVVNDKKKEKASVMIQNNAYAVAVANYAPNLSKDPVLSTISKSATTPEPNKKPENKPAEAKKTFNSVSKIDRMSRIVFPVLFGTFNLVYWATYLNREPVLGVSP
Substance-P receptor, sequence (P25103 whole entry): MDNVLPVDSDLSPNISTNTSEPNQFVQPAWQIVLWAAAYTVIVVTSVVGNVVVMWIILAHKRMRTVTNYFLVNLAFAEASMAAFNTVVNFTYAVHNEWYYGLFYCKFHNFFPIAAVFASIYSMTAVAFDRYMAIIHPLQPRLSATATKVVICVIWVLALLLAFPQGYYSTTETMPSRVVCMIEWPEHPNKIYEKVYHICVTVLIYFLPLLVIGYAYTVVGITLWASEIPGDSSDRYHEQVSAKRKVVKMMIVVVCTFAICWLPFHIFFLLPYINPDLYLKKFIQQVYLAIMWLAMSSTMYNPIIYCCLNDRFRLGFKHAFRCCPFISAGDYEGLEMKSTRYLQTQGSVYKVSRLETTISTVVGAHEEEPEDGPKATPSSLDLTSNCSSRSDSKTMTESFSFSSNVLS

For orientation: AC50 means the midpoint of the concentration-response curve, whichever way the signal moves. For the compound `CN1CCN(C2=Nc3ccccc3Oc3ccc(Cl)cc32)CC1` [LOXAPINE], the AC50 on Substance-P receptor was over 10 µM; in test [1], 0.169 µM.

On to `Clc1ccc2c(N3CCN(CCCN4CCN(c5ccnc6cc(Cl)ccc56)CC4)CC3)ccnc2c1` [PIPERAQUINE], for which the AC50 at Androgen receptor [2] and at Androgen receptor [3] was over 30 µM throughout.

`CC12CC3CC(C)(C1)CC(N)(C3)C2` [MEMANTINE]: the AC50 on Histamine H1 receptor is over 30 µM.

Turning to `CCOC(=O)N1CSC[C@H]1C(=O)O` [TELMESTEINE], at Androgen receptor [4], the AC50 was over 30 µM.

Regarding `CN1CCC(=C2c3ccccc3CCc3cccnc32)CC1` [AZATADINE], the values for the AC50 (at Histamine H1 receptor; in test [5]) were 0.0665 µM and over 10 µM, respectively.

In the case of `CCCc1nc(C(C)(C)O)c(C(=O)O)n1Cc1ccc(-c2ccccc2-c2nnn[nH]2)cc1` [OLMESARTAN], at Androgen receptor [4], the AC50 was over 30 µM.

Consider `COCC1=C(C(=O)O)N2C(=O)[C@@H](NC(=O)/C(=N\OC)c3csc(N)n3)[C@H]2SC1` [CEFPODOXIME], for which the half-maximal activity concentration (AC50) at Androgen receptor [2] and at Androgen receptor [3] was over 30 µM each time.

In turn, `O=[N+]([O-])c1ccc(O)c2ncccc12` [NITROXOLINE] gave an AC50 in test [6] of over 30 µM.

`C[C@H](Cc1ccc(O)c(O)c1)[C@@H](C)Cc1ccc(O)c(O)c1` [MASOPROCOL]: the AC50 on Histamine H1 receptor is 23 µM.

In test [5], `CCOC(=O)C1=C(C)NC(C)=C(C(=O)OC)C1c1cccc([N+](=O)[O-])c1` (stereo not given) [NITRENDIPINE] came in with a half-maximal activity concentration (AC50) of over 10 µM.

In test [5], `[H]/N=C(/N)N/C(=N/[H])NCCc1ccccc1` [PHENFORMIN] came in with an AC50 of 6.71 µM.

Turning to `Cc1cccc(N2CC(CO)OC2=O)c1` (stereo not given) [TOLOXATONE], the AC50 at Androgen receptor [2] and at Androgen receptor [3] was over 30 µM in each case.

Regarding `NCC(CC(=O)O)c1ccccc1` (stereo not given) [PHENIBUT], the AC50 at Androgen receptor [4] is over 30 µM.

Consider `O=C(O)c1cn(C2CC2)c2cc(N3CCNCC3)c(F)cc2c1=O` [CIPROFLOXACIN], for which the AC50 on Substance-P receptor was over 10 µM.

In the case of `C=CCNc1nc(NCC=C)nc(N2CCN(C(c3ccc(F)cc3)c3ccc(F)cc3)CC2)n1` [ALMITRINE], the AC50 on Androgen receptor [2] and on Androgen receptor [3] was over 30 µM in each case.

On to `Oc1ccc2c(c1)CC[C@H](c1ccccc1)[C@@H]2c1ccc(OCCN2CCCC2)cc1` [LASOFOXIFENE], for which the values for the concentration at half-maximal activity (AC50) (in test [6]; on Androgen receptor [2]; on Androgen receptor [3]) were over 30 µM, 23 µM and over 30 µM, respectively.

In test [5], `CCC[C@H](NC(=O)[C@@H]1[C@H]2CCC[C@H]2CN1C(=O)[C@@H](NC(=O)[C@@H](NC(=O)c1cnccn1)C1CCCCC1)C(C)(C)C)C(=O)C(=O)NC1CC1` showed an AC50 of over 10 µM.

On to `CC(N)C(O)c1ccccc1` (stereo not given) [PHENYLPROPANOLAMINE], for which the concentration at half-maximal activity (AC50) (on Substance-P receptor; in test [1]; in test [5]) was over 10 µM each time.

As for `C[C@]12CC[C@@H]3c4ccc(O)cc4C[C@@H](CCCCCCCCC[S+]([O-])CCCC(F)(F)C(F)(F)F)[C@H]3[C@@H]1CC[C@@H]2O` (stereo not given in full) [FULVESTRANT], the AC50 (in test [6]; at Histamine H1 receptor; on Androgen receptor [3]) was over 30 µM in each case.

The compound `COc1cc(N2CCC(N3CCN(C)CC3)CC2)ccc1Nc1ncc(Cl)c(Nc2ccccc2P(C)(C)=O)n1` [BRIGATINIB] had an AC50 on Androgen receptor [4] of over 30 µM.

For the compound `CC(C)NCC(O)c1ccc(O)c(O)c1` (stereo not given) [ISOPROTERENOL], the AC50 on Substance-P receptor was over 10 µM.

As for `CC(=O)N[C@@H](CS)C(=O)O` [ACETYLCYSTEINE], on Histamine H1 receptor, the AC50 was over 30 µM.

As for `C[C@H](Cc1cc2c(c(C(N)=O)c1)N(CCCO)CC2)NCCOc1ccccc1OCC(F)(F)F` [SILODOSIN], the AC50 at Androgen receptor [4] is over 30 µM.

Take `OC1(c2ccc(Cl)cc2)c2ccccc2C2=NCCN21` (stereo not given) [MAZINDOL]: the AC50 at Substance-P receptor is over 10 µM; at Androgen receptor [2] it was over 30 µM; on Androgen receptor [3], over 30 µM; in test [1] it was over 10 µM; in test [5] it was over 10 µM.

In turn, `CN(C)CCOC(c1ccccc1)c1ccc(Br)cc1` (stereo not given) [BROMODIPHENHYDRAMINE] yielded an AC50 at Androgen receptor [4] of over 30 µM.

Consider `CCC(C)C1(CC)C(=O)NC(=O)NC1=O` (stereo not given) [BUTABARBITAL], for which the AC50 on Androgen receptor [2] and at Androgen receptor [3] was over 30 µM throughout.

In test [6], `C/N=C(\NC)NCc1ccccc1` [BETHANIDINE] yielded an AC50 of over 30 µM.

`c1ccc2c(c1)CCc1ccccc1N2C1CN2CCC1CC2` (stereo not given) [QUINUPRAMINE] displayed an AC50 at Androgen receptor [4] of over 30 µM.

`CNC1=Nc2ccc(Cl)cc2C(c2ccccc2)=[N+]([O-])C1` [CHLORDIAZEPOXIDE] gave an AC50 in test [5] of over 10 µM.

Consider `CCC(=O)O[C@]1(C(=O)SCF)[C@H](C)C[C@H]2[C@@H]3C[C@H](F)C4=CC(=O)C=C[C@]4(C)[C@@]3(F)[C@@H](O)C[C@@]21C` [FLUTICASONE PROPIONATE], for which the AC50 (on Substance-P receptor; in test [1]; in test [5]) was over 10 µM in each case.

As to `CC1=CCC(C(C)(C)O)CC1O` (stereo not given) [SOBREROL], at Androgen receptor [4], the AC50 was over 30 µM.

Take `Cc1cnc(C(=O)NCCc2ccc(S(=O)(=O)NC(=O)NC3CCCCC3)cc2)cn1` [GLIPIZIDE]: the AC50 (at Substance-P receptor; in test [1]; in test [5]) was over 10 µM each time.

Turning to `Cc1cc(C(C)(C)C)cc(C)c1CC1=NCCN1` [XYLOMETAZOLINE], the AC50 in test [6] is over 30 µM; in test [5], 0.03 µM.

In the case of `CN(C)CCCNc1c2ccccc2nc2cccc([N+](=O)[O-])c12` [NITRACRINE], the AC50 at Androgen receptor [2] and on Androgen receptor [3] was over 30 µM each time.

Consider `CC(CCc1ccc(O)cc1)NCCc1ccc(O)c(O)c1` (stereo not given) [DOBUTAMINE], for which the figures for the half-maximal activity concentration (AC50) (at Substance-P receptor; in test [1]; in test [5]) were over 10 µM, 0.0704 µM and 10.8 µM, respectively.

Regarding `CC(C)N(CCNC(=O)CN1CCCC1=O)C(C)C`, the AC50 on Androgen receptor [4] is over 30 µM.

Turning to `CCC(C)C(CC)C(N)=O` (stereo not given) [VALNOCTAMIDE], the AC50 (in test [6]; on Histamine H1 receptor; on Androgen receptor [2]; at Androgen receptor [3]) was over 30 µM throughout.
